One experiment concerns the target T1, Leucine aminopeptidase (Plasmodium falciparum 3D7, UniProt Q8IL11).
T1 sequence (Q8IL11 whole entry): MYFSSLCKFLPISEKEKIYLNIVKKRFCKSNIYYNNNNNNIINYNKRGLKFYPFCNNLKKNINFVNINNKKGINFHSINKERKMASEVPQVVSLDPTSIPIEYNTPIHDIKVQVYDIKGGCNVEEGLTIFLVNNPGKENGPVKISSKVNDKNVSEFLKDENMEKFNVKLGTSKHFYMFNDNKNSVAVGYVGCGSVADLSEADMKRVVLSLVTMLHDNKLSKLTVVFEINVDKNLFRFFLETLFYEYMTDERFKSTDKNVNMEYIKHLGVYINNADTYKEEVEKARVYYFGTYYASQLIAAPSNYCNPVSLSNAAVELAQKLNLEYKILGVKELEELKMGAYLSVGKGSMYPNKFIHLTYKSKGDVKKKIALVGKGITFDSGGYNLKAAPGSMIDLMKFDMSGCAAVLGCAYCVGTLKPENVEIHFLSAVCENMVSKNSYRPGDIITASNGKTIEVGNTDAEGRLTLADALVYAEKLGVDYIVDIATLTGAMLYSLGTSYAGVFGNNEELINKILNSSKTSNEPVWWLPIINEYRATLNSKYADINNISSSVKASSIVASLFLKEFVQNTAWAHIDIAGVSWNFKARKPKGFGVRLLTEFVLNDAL
Kind of experiment: P. falciparum M17LAP inhibitors, primary screen, biochemical, fluorogenic H-Leu-NHMec substrate, 1536-well (AID 1619). Format: functional.

For experiment [1], the target named is Peroxisome proliferator-activated receptor gamma/Nuclear receptor coactivator 2 (Homo sapiens, UniProt P37231). Briefly: TR-FRET dose response biochemical High Throughput Screening assay for agonists of the steroid receptor coactivator 2 (SRC-2) recruitment by the peroxisome proliferator-activated receptor gamma (PPAR gamma): non-selective agonists. [Related pubchem assays: 1297, 1032 ]. Format: functional. (In general: In TR-FRET formats the signal depends on donor and acceptor labels being close together.)

For experiment [2], the target named is Peroxisome proliferator-activated receptor gamma/Nuclear receptor coactivator 3 (Homo sapiens, UniProt P37231). Kind of experiment: TR-FRET dose response biochemical High Throughput Screening assay for agonists of the steroid receptor coactivator 3 (SRC-3) recruitment by the peroxisome proliferator-activated receptor gamma (PPAR gamma): non-selective agonists. [Related pubchem assays: 1301 (Confirmation screen.), 1048 (Primary screen.)]. Format: functional.

Experiment [3] has as its target Peroxisome proliferator-activated receptor gamma/Nuclear receptor coactivator 1 (Homo sapiens, UniProt P37231). Kind of experiment: TR-FRET dose response biochemical High Throughput Screening assay for agonists of the steroid receptor coactivator 1 (SRC-1) recruitment by the peroxisome proliferator-activated receptor gamma (PPAR gamma): non-selective agonists. [Related pubchem assays (depositor defined):AID1300, AID1808, AID504735, AID631]. Format: protein assay.

Experiment [4] concerns the target T2, Tyrosine-protein phosphatase non-receptor type 22 (Homo sapiens, UniProt Q9Y2R2).
T2 sequence (Q9Y2R2 whole entry): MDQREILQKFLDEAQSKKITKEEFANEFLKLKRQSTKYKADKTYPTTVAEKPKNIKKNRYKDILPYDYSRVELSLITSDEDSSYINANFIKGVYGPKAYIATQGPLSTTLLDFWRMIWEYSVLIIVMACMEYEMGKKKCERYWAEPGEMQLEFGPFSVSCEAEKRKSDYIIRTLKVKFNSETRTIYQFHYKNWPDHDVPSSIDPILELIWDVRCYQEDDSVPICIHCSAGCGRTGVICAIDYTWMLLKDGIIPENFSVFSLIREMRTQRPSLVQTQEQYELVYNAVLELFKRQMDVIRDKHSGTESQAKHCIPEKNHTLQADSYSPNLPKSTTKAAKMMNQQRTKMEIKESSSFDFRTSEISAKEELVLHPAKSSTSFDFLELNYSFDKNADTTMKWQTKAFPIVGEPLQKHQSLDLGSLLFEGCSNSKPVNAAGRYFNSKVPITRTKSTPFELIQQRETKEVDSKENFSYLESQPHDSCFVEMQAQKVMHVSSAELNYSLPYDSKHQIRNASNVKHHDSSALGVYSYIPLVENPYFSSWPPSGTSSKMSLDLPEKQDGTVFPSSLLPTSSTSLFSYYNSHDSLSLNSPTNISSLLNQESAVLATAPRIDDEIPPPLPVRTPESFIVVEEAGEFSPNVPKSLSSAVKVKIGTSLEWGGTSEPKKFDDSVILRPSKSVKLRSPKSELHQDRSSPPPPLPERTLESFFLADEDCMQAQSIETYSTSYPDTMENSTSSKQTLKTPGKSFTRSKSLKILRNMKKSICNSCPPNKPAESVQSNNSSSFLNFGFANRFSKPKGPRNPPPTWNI
Briefly: SAR LYP1 Fluorescent Assay using OMFP substrate for In Vitro dose response studies - Set 3. [Related pubchem assays (depositor defined):AID1779, AID1784, AID2140, AID2686]. Format: functional.

Experiment [5] deals with T2, Tyrosine-protein phosphatase non-receptor type 22. Kind of experiment: SAR LYP1 Fluorescent Assay using OMFP substrate for In Vitro dose response studies - Set 2. [Related pubchem assays (depositor defined):AID1779, AID1784, AID2140, AID449726, AID488869]. Format: functional.
Experiment [6] addresses T3, Tyrosine-protein phosphatase non-receptor type 7 (Homo sapiens, UniProt P35236).
T3 sequence (P35236 whole entry): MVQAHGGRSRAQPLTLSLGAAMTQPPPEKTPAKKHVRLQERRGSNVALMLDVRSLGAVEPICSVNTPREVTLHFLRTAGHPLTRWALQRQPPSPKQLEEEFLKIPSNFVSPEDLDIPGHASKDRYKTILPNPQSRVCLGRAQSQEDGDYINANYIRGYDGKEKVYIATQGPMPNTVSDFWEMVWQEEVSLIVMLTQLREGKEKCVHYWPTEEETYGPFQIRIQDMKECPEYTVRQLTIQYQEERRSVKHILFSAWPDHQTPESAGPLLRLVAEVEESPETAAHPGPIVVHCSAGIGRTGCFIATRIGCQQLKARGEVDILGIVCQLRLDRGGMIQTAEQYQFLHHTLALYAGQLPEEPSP
Kind of experiment: inhibition of hematopoietic tyrosine phosphatase HePTP – biochemical, set 2, SAR follow-up (AID 449736). Format: functional.

The target in experiment [7] is T2, Tyrosine-protein phosphatase non-receptor type 22. Briefly: inhibition of lymphoid tyrosine phosphatase LYP – biochemical, pCAP fluorogenic substrate, fluorescence, set 3, SAR follow-up (AID 449727). Format: functional.
Experiment [8] addresses Tyrosine-protein phosphatase non-receptor type 12 (Homo sapiens, UniProt Q05209). Kind of experiment: SAR Selectivity Analysis of small molecule inhibitors of PEST using pCAP in a fluorescence assay. [Related pubchem assays (depositor defined):AID1779, AID1784, AID2135]. Format: functional.
Experiment [9] addresses T2, Tyrosine-protein phosphatase non-receptor type 22. Kind of experiment: SAR LYP1 Fluorescent Assay using pCAP substrate for In Vitro dose response studies - Set 2. [Related pubchem assays (depositor defined):AID1779, AID1784, AID2135, AID449727]. Format: functional.
Experiment [10] addresses Ras and Rab interactor 1/Tyrosine-protein kinase ABL1 (Homo sapiens, UniProt P00519+Q13671). Format: functional.
Experiment [11] concerns the target T4, High affinity choline transporter 1 (Homo sapiens, UniProt Q9GZV3).
T4 sequence (Q9GZV3 whole entry): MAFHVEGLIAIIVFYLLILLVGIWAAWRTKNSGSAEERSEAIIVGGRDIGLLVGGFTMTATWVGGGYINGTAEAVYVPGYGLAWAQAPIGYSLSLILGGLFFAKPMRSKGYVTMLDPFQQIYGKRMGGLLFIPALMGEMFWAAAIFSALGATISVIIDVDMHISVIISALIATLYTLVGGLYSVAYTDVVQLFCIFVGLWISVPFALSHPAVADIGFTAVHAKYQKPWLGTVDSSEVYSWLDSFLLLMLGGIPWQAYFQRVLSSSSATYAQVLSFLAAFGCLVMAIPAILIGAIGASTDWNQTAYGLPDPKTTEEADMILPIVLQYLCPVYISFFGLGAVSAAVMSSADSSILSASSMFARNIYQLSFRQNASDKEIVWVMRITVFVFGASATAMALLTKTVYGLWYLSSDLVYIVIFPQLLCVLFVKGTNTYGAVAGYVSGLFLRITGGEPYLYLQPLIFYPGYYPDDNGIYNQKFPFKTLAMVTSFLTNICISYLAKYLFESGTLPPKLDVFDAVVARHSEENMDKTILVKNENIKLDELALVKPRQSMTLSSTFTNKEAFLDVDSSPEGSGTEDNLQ
Briefly: human choline transporter blockers, potency – cell-based, 5-point CRC, membrane potential dye, dose response (AID 504840). Format: functional.

In experiment [12] the target is Intestinal-type alkaline phosphatase (Mus musculus, UniProt P24822). Kind of experiment: PubChem AID 488785. Format: functional.
The target of experiment [13] is T5, Zinc finger protein mex-5 (Caenorhabditis elegans, UniProt Q9XUB2).
T5 sequence (Q9XUB2 whole entry): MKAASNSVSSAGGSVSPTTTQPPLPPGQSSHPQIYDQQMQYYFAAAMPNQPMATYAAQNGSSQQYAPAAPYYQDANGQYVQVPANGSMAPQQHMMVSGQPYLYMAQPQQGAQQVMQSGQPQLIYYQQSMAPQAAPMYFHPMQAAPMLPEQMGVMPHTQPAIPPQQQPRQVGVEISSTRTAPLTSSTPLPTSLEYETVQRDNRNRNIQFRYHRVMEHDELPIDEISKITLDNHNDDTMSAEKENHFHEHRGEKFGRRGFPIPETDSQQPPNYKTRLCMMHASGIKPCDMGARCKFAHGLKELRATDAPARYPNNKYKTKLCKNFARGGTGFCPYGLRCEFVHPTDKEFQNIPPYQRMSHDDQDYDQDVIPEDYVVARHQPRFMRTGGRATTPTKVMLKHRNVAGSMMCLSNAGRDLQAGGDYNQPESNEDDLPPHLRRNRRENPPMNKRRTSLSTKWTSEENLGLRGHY
Briefly: potency of MEX-5 RNA-binding blockers – biochemical, C. elegans, fluorescence polarization, dose response (AID 1960). Background: Fluorescence polarisation rises when a labelled molecule tumbles more slowly, as on binding a larger partner.

The target of experiment [14] is Intestinal-type alkaline phosphatase (Homo sapiens, UniProt P09923). Kind of experiment: activation of human intestinal alkaline phosphatase – biochemical, dose response (AID 488873). Format: functional.
Experiment [15] has as its target T6, Alkaline phosphatase, tissue-nonspecific isozyme (Homo sapiens, UniProt P05186).
T6 sequence (P05186 whole entry): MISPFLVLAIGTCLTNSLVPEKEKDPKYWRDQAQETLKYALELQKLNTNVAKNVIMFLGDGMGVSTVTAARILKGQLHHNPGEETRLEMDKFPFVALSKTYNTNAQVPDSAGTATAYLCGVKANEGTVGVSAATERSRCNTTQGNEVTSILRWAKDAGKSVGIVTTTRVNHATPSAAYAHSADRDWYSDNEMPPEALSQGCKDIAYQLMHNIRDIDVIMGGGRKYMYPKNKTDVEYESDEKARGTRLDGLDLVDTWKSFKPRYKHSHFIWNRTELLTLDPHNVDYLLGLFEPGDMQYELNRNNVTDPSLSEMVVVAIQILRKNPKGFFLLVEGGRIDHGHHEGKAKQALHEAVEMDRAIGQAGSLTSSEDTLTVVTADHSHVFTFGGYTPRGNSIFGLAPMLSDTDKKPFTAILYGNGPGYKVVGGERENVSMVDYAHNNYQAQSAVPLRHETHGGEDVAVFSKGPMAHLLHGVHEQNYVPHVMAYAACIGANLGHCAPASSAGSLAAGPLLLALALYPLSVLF
Kind of experiment: TNAP enzyme inhibition by screening hits, dose response, selectivity assay for mouse IAP inhibitor project, biochemical, human TNAP, uHTS hits (AID 488906). Format: functional.

Experiment [16] concerns the target T7, RNA-binding protein pos-1 (Caenorhabditis elegans, UniProt G5EF15).
T7 sequence (G5EF15 whole entry): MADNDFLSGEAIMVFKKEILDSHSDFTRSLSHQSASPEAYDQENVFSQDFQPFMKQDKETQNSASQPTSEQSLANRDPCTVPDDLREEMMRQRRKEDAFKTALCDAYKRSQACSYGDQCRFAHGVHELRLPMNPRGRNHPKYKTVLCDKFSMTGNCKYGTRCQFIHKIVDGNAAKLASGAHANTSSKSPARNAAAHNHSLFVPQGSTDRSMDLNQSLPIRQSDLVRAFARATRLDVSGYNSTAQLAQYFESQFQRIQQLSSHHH
Kind of experiment: disruptors of C. elegans POS-1 RNA interaction – biochemical, fluorescence polarization, dose response (AID 1964).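 Also: purified POS-1 fused to maltose binding protein made in E. coli; potency of compounds blocking POS-1 binding to fluorescent RNA.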

In the next experiment the target is Albumin (Bos taurus, UniProt P02769). Kind of experiment: Counterscreen for inhibitors of T-cell receptor (TCR)-CD3 interaction: Fluorescence-based biochemical high throughput dose response assay to identify inhibitors of T-cell receptor (TCR)-CD3 interaction using a TAMRA-labeled BSA probe. Format: functional. A general note: Counterscreens check selectivity or assay interference.

The next experiment has as its target Large T antigen (Simian virus 40, UniProt P03070). Format: functional, Betapolyomavirus macacae.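 Also: Confirmatory-stage PubChem screen for compounds that inhibit SV40 T antigen.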

Molecules are shown by their SMILES. Calls of active or inactive are those of the source. Some results are limits rather than exact numbers.

The term IC50 denotes the concentration that gives 50% inhibition. Usually EC50 stands for the midpoint of the concentration-response curve.

Sequence of Ras and Rab interactor 1/Tyrosine-protein kinase ABL1 (P00519 whole entry): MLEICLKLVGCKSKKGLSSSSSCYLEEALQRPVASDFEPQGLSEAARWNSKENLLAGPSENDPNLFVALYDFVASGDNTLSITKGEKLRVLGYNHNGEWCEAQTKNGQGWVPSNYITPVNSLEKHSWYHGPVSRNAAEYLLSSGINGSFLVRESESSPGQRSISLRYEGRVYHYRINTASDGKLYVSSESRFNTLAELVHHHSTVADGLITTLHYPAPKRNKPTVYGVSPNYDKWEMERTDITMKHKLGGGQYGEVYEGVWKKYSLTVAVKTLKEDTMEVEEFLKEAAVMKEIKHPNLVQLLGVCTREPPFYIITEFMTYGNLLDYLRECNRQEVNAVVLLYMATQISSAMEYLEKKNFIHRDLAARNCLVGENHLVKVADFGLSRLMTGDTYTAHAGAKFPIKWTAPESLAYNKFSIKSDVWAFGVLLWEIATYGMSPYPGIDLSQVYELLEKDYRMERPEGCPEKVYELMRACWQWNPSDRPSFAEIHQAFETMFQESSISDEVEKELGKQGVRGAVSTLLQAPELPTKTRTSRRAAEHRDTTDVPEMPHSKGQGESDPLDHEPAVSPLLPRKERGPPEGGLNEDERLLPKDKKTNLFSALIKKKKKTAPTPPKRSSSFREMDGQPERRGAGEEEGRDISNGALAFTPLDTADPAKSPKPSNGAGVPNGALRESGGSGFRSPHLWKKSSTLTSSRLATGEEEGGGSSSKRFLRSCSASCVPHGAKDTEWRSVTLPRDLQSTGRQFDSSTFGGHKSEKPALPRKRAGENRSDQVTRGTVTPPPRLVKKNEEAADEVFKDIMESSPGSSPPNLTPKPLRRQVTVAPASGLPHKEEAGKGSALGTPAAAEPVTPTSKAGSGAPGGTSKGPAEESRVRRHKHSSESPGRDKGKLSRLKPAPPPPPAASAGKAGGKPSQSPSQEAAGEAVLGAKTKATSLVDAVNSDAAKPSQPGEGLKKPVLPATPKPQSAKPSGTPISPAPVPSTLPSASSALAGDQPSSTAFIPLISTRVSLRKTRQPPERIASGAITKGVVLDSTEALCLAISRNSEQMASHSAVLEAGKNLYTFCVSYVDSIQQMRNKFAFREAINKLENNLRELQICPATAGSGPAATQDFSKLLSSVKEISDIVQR
Sequence of Ras and Rab interactor 1/Tyrosine-protein kinase ABL1 (Q13671 whole entry): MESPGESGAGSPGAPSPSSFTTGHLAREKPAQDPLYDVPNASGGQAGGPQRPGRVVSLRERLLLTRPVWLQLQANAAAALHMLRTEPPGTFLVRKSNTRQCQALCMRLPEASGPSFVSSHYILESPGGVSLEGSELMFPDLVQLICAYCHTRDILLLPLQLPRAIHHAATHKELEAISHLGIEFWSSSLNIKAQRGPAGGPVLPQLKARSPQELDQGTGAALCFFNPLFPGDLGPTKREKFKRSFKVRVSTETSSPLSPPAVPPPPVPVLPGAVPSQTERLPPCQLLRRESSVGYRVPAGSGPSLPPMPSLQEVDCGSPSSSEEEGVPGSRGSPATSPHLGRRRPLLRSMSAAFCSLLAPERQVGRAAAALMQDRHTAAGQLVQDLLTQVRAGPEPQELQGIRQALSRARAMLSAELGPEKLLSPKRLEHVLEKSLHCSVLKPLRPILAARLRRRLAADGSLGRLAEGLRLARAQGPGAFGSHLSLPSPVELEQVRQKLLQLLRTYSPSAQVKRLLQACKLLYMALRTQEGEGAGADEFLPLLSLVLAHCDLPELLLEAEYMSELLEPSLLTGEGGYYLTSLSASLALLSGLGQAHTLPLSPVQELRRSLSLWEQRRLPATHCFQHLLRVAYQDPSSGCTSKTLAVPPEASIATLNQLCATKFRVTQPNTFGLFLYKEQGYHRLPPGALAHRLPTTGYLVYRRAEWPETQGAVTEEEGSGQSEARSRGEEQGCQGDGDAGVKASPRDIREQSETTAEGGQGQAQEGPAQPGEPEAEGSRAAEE
Sequence of Intestinal-type alkaline phosphatase (Homo sapiens, UniProt P09923) (P09923 whole entry): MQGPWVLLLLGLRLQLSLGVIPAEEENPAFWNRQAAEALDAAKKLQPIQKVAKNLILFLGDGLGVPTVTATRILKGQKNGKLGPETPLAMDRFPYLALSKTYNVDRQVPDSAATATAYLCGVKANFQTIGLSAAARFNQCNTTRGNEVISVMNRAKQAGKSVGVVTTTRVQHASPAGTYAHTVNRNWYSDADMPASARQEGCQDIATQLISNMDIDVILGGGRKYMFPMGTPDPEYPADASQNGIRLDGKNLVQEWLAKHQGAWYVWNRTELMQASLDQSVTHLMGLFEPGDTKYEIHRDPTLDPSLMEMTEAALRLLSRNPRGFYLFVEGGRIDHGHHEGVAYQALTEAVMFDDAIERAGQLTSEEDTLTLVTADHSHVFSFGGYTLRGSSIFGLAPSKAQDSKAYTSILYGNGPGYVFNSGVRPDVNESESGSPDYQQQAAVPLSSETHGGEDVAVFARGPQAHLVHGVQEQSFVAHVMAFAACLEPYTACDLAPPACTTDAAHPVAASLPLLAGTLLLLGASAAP
Sequence of Intestinal-type alkaline phosphatase (Mus musculus, UniProt P24822) (P24822 whole entry): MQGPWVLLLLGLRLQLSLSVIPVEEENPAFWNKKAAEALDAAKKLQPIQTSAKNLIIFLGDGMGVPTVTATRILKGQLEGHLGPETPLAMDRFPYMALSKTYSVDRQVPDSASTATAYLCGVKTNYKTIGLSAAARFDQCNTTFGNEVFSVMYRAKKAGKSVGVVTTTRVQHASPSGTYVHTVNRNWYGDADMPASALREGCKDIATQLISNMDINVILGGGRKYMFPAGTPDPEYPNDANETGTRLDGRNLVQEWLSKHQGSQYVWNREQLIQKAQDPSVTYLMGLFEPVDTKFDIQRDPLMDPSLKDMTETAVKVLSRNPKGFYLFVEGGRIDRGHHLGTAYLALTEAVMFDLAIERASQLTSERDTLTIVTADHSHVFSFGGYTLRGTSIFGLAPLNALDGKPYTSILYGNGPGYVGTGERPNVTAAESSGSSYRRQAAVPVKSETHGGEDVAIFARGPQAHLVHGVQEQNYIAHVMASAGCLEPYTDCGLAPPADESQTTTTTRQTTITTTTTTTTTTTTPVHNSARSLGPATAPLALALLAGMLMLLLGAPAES
Sequence of Peroxisome proliferator-activated receptor gamma/Nuclear receptor coactivator 3 (P37231 whole entry): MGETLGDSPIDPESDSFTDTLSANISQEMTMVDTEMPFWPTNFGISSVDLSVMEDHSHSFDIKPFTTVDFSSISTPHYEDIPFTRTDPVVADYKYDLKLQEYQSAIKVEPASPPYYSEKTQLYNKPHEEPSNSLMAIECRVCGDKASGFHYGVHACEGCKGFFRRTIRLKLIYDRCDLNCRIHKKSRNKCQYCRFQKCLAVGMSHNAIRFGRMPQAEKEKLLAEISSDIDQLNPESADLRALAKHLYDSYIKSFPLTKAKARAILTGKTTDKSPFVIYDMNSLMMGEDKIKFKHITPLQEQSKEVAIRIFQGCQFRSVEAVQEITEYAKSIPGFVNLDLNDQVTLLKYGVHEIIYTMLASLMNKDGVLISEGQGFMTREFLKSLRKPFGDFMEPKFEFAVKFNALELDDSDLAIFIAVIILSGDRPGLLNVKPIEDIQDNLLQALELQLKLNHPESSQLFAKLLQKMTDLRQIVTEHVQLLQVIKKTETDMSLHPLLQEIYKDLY
Sequence of Peroxisome proliferator-activated receptor gamma/Nuclear receptor coactivator 3 (Q9Y6Q9 whole entry, further chain): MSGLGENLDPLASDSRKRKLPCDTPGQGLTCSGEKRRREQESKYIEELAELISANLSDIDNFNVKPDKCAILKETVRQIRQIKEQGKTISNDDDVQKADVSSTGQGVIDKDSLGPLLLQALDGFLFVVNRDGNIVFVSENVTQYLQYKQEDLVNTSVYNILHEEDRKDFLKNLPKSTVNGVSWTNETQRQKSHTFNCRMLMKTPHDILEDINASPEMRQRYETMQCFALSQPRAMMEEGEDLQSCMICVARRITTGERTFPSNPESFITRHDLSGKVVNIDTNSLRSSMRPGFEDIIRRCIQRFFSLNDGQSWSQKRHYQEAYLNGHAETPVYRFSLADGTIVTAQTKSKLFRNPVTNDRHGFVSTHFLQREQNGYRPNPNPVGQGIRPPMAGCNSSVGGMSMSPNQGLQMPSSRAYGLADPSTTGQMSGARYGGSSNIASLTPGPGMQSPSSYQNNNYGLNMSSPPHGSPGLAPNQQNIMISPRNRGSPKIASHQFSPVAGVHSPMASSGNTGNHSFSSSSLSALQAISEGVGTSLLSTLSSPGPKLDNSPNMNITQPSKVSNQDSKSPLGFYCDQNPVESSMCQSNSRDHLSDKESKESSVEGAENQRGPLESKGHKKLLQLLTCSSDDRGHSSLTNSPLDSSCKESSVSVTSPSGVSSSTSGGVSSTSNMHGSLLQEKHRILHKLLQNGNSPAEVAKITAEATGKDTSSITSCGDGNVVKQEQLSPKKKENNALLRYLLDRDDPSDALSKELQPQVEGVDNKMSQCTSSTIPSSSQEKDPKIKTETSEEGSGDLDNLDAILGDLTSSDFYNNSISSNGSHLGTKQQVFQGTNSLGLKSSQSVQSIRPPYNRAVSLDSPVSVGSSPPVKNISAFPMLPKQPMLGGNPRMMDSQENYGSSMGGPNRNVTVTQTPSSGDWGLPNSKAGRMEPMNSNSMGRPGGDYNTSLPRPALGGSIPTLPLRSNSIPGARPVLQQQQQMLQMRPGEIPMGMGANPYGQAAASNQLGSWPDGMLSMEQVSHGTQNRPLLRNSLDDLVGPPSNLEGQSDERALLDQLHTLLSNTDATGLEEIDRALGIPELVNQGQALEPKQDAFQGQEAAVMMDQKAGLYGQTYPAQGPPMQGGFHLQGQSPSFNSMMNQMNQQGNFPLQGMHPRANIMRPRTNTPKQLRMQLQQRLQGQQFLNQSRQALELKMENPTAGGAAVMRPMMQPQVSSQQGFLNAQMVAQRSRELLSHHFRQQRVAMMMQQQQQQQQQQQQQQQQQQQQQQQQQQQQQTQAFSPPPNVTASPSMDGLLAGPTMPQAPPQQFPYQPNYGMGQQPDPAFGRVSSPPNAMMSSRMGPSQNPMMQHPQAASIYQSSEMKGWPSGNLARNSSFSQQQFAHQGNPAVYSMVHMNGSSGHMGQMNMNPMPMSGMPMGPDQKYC

Turning to `CCc1nnc(NS(=O)(=O)c2ccc(N/C=C\C(=O)c3cccc4ccccc34)cc2)s1`, the half-maximal inhibitory concentration (IC50) at Leucine aminopeptidase is 10.1 µM (active). Also, the EC50 in experiment [1] is > 79.4 µM (not active); in experiment [2], > 8.82 µM (not active); in experiment [3] it was > 79.4 µM (inactive).
Take `CCOc1cc(C=NNC(=O)c2ccc(-c3csc(Nc4ccc(C)cc4)n3)cc2)ccc1OCC(=O)O`: the IC50 in experiment [4] was 1.04 µM (active); in experiment [5], 5.13 µM (active); in experiment [6], 1.91 µM (active); in [7] it was 4.27 µM (active); in experiment [8], 1 µM (active); in experiment [9], 4.42 µM (active).
As for `Oc1ccc(C[C@H]2NCCc3cc(O)c(O)cc32)cc1O`, the IC50 is 2.33 µM (active) in experiment [10]; 0.47 µM (active) in [11]; 8.06 µM (active) in experiment [12]; 10.1 µM (active) in experiment [15]; > 94.1 µM (inactive) at Albumin; 9.06 µM (active) at Large T antigen. Further, the 50% effective concentration (EC50) in experiment [13] was 5.43 µM (active); in experiment [14], > 100 µM (inactive); in [16] it was 6.36 µM (active).

(Values after ChEMBL document CHEMBL1201862, “PubChem BioAssay data set” (2004).)
